Test results reported in ChEMBL document CHEMBL3272309, “Potential central nervous system antitumor agents. Aziridinylbenzoquinones. 1” (J Med Chem, 1976).

Columns and labels:
B16 = assay: Antitumor activity against mouse B16 cells allografted in mouse assessed as change in body weight at 0.78 mg/kg, ip qd administered from day 1 to 9 post ip tumor-implantation measured on day 5 relative to control; format: functional; conditions: route intraperitoneal
P388 [1] = assay: Antitumor activity against mouse P388 cells allografted in mouse assessed as change in body weight at 3.12 mg/kg, ip qd administered from day 1 to 9 post intracerebral tumor-implantation measured on day 5 relative to control; format: functional; conditions: route intraperitoneal
P388 [2] = assay: Antitumor activity against mouse P388 cells allografted in mouse assessed as change in body weight at 6.25 mg/kg, ip qd administered from day 1 to 9 post ip tumor-implantation measured on day 5 relative to control; format: functional; conditions: route intraperitoneal
L1210 [3] = assay: Antitumor activity against mouse L1210 cells allografted in mouse assessed as mouse survival at 4.6 mg/kg, ip qd administered from day 1 to 9 post ip tumor-implantation relative to control; format: functional; conditions: route intraperitoneal
Mus musculus = assay: Toxicity in mouse allografted with mouse ependymoblastoma cells at 8 mg/kg, ip qd administered from day 1 to 5 post intracerebral tumor-implantation; format: organism-based; design: dose 8 mg/kg, route intraperitoneal; conditions: in vivo
L1210 [4] = assay: Antitumor activity against mouse L1210 cells allografted in mouse assessed as change in body weight at 6.25 mg/kg, ip qd administered from day 1 to 9 post ip tumor-implantation measured on day 5 relative to control; format: functional; conditions: route intraperitoneal
[5] = Antitumor activity against mouse ependymoblastoma cells allografted in mouse assessed as change in body weight at 0.25 mg/kg, ip qd administered from day 1 to 5 post intracerebral tumor-implantation measured on day 5 relative to control; format: functional; conditions: route intraperitoneal
L1210 [6] = assay: Antitumor activity against mouse L1210 cells allografted in mouse assessed as change in body weight at 3.12 mg/kg, ip qd administered from day 1 to 9 post intracerebral tumor-implantation measured on day 5 relative to control; format: functional; conditions: route intraperitoneal

CCOC(=O)NC1=C(N2CC2)C(=O)C(NC(=O)OCC)=C(N2CC2)C1=O [DIAZIQUONE]
Activity (B16): -2.2 g | Activity (P388 [1]): -2.1 g | Activity (P388 [2]): -6.1 g | T/C (L1210 [3]): 98% | Activity (Mus musculus): Toxic | Activity (L1210 [4]): -4.1 g | Activity [5]: -1.5 g | Activity (L1210 [6]): -2.1 g
